What all share (type): functional, cell-based
In experiment [1] the target is Metabotropic glutamate receptor 4 (Rattus norvegicus, UniProt P31423). The experiment is described as follows: Agonist activity at rat mGluR4 expressed in HEK293 cells assessed as induction of inositol phosphate production by HTRF assay.
Experiment [2] deals with Metabotropic glutamate receptor 8 (Rattus norvegicus, UniProt P70579). As to the kind of experiment: Agonist activity at rat mGluR8 expressed in HEK293 cells assessed as induction of inositol phosphate production by HTRF assay.
Sequence of Metabotropic glutamate receptor 8 (P70579 whole entry): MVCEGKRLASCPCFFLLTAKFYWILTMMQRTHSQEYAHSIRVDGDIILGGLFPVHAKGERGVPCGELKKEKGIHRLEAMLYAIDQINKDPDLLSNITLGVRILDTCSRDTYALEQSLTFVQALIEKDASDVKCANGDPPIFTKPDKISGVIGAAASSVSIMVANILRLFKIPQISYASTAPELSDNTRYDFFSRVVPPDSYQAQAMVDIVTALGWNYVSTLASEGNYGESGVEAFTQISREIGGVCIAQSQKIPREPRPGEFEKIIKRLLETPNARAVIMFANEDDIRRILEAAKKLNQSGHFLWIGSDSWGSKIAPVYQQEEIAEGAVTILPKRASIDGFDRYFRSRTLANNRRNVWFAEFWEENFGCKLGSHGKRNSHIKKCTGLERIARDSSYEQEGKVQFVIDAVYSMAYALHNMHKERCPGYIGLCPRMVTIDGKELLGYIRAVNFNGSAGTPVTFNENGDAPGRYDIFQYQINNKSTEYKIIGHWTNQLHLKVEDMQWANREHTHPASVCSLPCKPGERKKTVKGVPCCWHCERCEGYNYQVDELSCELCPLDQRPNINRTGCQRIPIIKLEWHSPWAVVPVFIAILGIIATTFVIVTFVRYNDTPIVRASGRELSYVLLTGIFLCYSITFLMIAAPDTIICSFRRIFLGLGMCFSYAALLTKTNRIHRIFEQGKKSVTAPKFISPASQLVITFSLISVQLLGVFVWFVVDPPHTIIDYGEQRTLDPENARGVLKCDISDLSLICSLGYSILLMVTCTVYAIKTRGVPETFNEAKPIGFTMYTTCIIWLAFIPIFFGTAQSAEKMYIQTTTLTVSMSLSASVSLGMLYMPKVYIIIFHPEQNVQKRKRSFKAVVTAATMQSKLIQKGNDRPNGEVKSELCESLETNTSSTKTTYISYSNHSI
Experiment [3] concerns the target Metabotropic glutamate receptor 7 (Rattus norvegicus, UniProt P35400). As to the kind of experiment: Agonist activity at rat mGluR7 expressed in HEK293 cells assessed as induction of inositol phosphate production by HTRF assay. For orientation: In TR-FRET formats the signal depends on donor and acceptor labels being close together.
The target in experiment [4] is Metabotropic glutamate receptor 6 (Rattus norvegicus, UniProt P35349). The experiment is described as follows: Agonist activity at rat mGluR6 expressed in HEK293 cells assessed as induction of inositol phosphate production by HTRF assay.
Sequence of Metabotropic glutamate receptor 6 (P35349 whole entry): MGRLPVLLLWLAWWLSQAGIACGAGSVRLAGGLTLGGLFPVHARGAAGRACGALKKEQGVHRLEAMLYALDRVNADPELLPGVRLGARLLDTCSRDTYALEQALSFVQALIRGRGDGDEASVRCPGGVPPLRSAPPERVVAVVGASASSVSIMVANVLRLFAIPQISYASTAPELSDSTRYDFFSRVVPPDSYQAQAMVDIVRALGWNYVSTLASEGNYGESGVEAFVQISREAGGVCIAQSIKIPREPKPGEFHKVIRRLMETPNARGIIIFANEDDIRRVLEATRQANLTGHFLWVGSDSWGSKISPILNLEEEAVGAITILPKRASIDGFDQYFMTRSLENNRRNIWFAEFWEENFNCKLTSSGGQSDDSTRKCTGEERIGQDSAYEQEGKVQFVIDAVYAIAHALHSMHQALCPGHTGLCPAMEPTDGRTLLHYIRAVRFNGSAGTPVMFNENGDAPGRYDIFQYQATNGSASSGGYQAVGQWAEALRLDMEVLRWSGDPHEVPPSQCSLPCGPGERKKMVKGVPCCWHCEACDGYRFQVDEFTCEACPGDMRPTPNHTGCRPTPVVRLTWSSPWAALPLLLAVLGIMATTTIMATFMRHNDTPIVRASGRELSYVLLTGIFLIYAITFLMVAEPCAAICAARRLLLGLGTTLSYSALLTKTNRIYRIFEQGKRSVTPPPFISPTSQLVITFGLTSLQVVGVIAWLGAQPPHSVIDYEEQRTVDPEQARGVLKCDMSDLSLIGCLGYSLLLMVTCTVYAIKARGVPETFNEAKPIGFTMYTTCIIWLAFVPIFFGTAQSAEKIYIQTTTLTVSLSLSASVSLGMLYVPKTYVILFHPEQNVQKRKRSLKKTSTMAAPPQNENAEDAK
Experiment [5] concerns the target Metabotropic glutamate receptor 1 (Rattus norvegicus) (UniProt P23385). The experiment is described as follows: Agonist activity at rat mGluR1 expressed in HEK293 cells assessed as induction of inositol phosphate production at 100 uM by HTRF assay.
Experiment [6] addresses Metabotropic glutamate receptor 5 (Rattus norvegicus) (UniProt P31424). As to the kind of experiment: Agonist activity at rat mGluR5 expressed in HEK293 cells assessed as induction of inositol phosphate production at 100 uM by HTRF assay.
Experiment [7] addresses Metabotropic glutamate receptor 2 (Rattus norvegicus, UniProt P31421). As to the kind of experiment: Agonist activity at rat mGluR2 expressed in HEK293 cells assessed as induction of inositol phosphate production by HTRF assay.

pEC50: −log10 of the molar value. Activity calls are given as the source filed them. No cut-off for these calls is given here.

By pEC50 is commonly meant the negative decadic logarithm of the EC50, by convention in mol/L.

Sequence of Metabotropic glutamate receptor 7 (P35400 whole entry): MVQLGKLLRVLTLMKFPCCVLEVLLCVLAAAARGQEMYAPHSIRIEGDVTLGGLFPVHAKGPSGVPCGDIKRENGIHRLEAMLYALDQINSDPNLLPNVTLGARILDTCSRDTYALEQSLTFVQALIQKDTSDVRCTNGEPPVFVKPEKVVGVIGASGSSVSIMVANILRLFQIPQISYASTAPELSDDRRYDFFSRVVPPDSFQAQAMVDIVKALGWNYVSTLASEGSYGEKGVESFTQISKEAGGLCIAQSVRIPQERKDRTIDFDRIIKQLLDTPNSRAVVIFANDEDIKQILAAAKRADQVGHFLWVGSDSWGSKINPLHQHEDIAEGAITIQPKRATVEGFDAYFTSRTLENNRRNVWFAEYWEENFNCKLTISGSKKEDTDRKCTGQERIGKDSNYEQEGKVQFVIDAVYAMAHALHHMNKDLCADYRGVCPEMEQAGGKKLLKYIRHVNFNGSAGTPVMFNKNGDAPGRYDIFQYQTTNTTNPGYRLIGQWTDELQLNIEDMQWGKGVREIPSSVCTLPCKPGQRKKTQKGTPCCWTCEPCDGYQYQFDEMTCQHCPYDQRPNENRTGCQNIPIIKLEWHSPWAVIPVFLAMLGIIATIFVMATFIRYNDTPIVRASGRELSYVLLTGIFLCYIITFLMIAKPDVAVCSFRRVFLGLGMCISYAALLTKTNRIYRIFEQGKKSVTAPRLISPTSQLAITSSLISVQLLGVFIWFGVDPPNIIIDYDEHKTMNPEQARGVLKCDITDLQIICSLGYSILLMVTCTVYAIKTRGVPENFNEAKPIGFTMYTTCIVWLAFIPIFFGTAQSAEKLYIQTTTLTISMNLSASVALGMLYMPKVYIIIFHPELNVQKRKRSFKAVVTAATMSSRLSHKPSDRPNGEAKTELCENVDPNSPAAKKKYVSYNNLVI
Sequence of Metabotropic glutamate receptor 4 (P31423 whole entry): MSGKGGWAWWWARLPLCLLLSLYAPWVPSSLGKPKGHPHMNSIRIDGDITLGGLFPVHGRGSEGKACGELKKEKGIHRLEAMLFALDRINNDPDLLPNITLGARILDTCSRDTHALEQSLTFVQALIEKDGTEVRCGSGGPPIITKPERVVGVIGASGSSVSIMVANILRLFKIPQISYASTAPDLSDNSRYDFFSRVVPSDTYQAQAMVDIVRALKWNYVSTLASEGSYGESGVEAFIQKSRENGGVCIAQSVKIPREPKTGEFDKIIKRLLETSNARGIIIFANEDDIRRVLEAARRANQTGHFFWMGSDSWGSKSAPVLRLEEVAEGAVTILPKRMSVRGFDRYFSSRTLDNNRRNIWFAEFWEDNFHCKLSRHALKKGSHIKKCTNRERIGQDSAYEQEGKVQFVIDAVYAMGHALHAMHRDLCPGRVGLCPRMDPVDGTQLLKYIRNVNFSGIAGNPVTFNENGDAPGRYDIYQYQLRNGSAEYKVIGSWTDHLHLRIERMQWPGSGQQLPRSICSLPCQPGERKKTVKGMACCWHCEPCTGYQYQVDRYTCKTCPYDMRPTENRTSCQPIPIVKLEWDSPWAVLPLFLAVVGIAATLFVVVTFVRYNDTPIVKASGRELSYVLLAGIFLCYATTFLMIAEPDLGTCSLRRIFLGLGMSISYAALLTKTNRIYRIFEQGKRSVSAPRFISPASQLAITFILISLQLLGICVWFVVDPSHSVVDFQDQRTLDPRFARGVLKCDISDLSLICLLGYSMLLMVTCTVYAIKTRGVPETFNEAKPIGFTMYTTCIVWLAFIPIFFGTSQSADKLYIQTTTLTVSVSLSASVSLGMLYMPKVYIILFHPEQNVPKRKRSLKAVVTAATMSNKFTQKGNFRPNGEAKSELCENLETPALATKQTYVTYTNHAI
Sequence of Metabotropic glutamate receptor 5 (Rattus norvegicus) (P31424 21-1203 limits assumed): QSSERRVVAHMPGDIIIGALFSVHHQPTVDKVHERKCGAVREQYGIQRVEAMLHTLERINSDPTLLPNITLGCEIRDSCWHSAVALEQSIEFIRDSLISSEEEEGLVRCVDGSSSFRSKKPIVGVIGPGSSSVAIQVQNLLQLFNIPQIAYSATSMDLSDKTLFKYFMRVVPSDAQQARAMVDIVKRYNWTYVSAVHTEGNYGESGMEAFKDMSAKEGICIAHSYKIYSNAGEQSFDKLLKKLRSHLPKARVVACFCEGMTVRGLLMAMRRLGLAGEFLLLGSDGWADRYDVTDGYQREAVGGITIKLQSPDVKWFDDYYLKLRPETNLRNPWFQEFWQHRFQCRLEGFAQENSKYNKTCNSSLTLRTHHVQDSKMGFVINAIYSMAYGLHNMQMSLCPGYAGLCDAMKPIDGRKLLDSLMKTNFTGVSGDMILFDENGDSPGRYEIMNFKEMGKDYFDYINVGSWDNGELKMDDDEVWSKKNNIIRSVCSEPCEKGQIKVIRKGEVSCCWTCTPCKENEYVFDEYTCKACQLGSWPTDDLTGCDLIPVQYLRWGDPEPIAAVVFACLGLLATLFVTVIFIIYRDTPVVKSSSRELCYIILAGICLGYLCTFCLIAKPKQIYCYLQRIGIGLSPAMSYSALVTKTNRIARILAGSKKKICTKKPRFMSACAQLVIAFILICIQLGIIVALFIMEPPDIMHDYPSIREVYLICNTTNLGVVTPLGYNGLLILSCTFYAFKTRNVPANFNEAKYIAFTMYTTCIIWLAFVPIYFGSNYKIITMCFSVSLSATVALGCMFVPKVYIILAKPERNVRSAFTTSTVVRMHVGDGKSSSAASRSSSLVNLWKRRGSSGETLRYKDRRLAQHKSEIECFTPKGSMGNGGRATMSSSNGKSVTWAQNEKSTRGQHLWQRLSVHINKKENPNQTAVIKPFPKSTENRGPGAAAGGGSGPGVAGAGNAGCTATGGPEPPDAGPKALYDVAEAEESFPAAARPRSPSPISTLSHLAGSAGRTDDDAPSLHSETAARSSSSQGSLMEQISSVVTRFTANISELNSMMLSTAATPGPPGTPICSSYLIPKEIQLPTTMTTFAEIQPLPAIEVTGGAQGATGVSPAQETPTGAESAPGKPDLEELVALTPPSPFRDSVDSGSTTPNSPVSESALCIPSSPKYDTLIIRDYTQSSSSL

Regarding `NC1(C(=O)O)CC1(F)CP(=O)(O)O` (stereo in doubt; form 2), the pEC50 in experiment [1] was 3.87.
`NC1(C(=O)O)CC1(F)CP(=O)(O)O` (racemic; form 2): the negative logarithm of the EC50 (pEC50) in experiment [1] is 7.00.
Same read-out and setting: as for `NC1(C(=O)O)CC1(F)CP(=O)(O)O` (stereo in doubt; form 1), the figure is 4.94; as for `N[C@@]1(C(=O)O)C[C@H]1CP(=O)(O)O`, 7.52.
With `N[C@@H](CCC(=O)O)C(=O)O` [GLUTAMIC ACID], the negative logarithm of the EC50 (pEC50) in experiment [1] is 4.90; in experiment [2] it was 4.67; in experiment [3], < 4.00; in experiment [4], 4.09.
As to `NC1(C(=O)O)CC1(F)CP(=O)(O)O` (racemic; form 1) [listing 1 of 2 here], the result in experiment [5] and in experiment [6] was inactive.
`NC1(C(=O)O)CC1(F)CP(=O)(O)O` (single isomer, unassigned; form 2): the negative-log EC50 (pEC50) in experiment [1] was 7.00.
Still for that read-out and setting: for `NC1(C(=O)O)CC1(F)CP(=O)(O)O` (single isomer, unassigned; form 1) the value was 6.92.
As to `N[C@@H](CCP(=O)(O)O)C(=O)O`, the negative logarithm of the EC50 (pEC50) in experiment [1] is 7.52; in experiment [2] it was 6.96; in experiment [3] it was 3.37; in experiment [4] it was 5.46.
Consider `NC1(C(=O)O)CC1(F)CP(=O)(O)O` (racemic; form 1) [listing 2 of 2 here], for which the pEC50 in experiment [1] is 6.52; in experiment [7], < 4.00; in experiment [2], 5.90; in experiment [3], < 4.00; in experiment [4] it was 5.22.

For the origin of these results see ChEMBL document CHEMBL3425503, “Synthesis and studies on the mGluR agonist activity of FAP4 stereoisomers” (Bioorg Med Chem Lett, 2015).
